According to patent US5095012A, “Antibiotic C-7 catechol-substituted cephalosporin compounds, compositions, and method of use thereof” (Bristol-Myers Squibb Company, priority 1990, dated 1992):
In brackets after ≈: the same amount, converted by molar mass.

What was measured:
S. aureus Smith [1] = test: In vivo antibacterial activity in infected mice, S. aureus Smith; details: Staphylococcus aureus, im, just after the bacterial challenge, read-out: PD50, S. aureus Smith
Description: (§1) In vivo antibacterial activity was determined against three bacterial infections (S. aureus Smith, E. coli Juhl and P. aeruginosa A98483A) by intramuscular administration to mice just after the bacterial challenge. PD50 values are summarized in Table 2 in comparison with the MIC values against the corresponding organisms.

[2] = tested on: Penicillin(PC)-sensitive S. aureus (5 strains); test: MIC by two-fold serial agar dilution, group Gp-Ia; type: cell-based; details: Staphylococcus aureus, Gp-Ia (5 strains), Mueller-Hinton agar, read-out: Geometric mean of MIC, Gp-Ia
Description: (§2) Minimum inhibitory concentrations (MICs) for the compounds in the above examples were determined against thirty two strains of test organisms by a two-fold serial agar dilution method in Mueller-Hinton agar. Geometric means of MICs were calculated against six groups of the test organisms which are classified as follows and summarized in Table 1.
Gp-Ia Penicillin(PC)-sensitive S. aureus (5 strains).

P. aeruginosa A9843A [3] = test: MIC against P. aeruginosa A9843A; type: cell-based; details: Pseudomonas aeruginosa, read-out: MIC, P. aeruginosa A9843A
Description: as §2, §1

[4] = tested on: Penicillin(PC)-resistant S. aureus (5); test: MIC by two-fold serial agar dilution, group Gp-Ib; type: cell-based; details: Staphylococcus aureus, Gp-Ib (5), Mueller-Hinton agar, read-out: Geometric mean of MIC, Gp-Ib
Description: as §2
Gp-Ib Penicillin(PC)-resistant S. aureus (5).

E. coli Juhl [5] = test: MIC against E. coli Juhl; type: cell-based; details: Escherichia coli
Description: as §2, §1

E. coli Juhl [6] = test: In vivo antibacterial activity in infected mice, E. coli Juhl; details: Escherichia coli, im, just after the bacterial challenge, read-out: PD50, E. coli Juhl
Description: as §1

[7] = tested on: Cephalothin(CET)-resistant E. coli (3) and Kl. pneumoniae (2); test: MIC by two-fold serial agar dilution, group Gn-Ib; type: cell-based; details: Escherichia coli, read-out: Geometric mean of MIC, Gn-Ib
Description: as §2
Gn-Ib Cephalothin(CET)-resistant E. coli (3) and Kl.

[8] = tested on: Cephalothin(CET)-sensitive E. coli (2), Kl. pneumoniae (1) and Pr. mirabilis (2); test: MIC by two-fold serial agar dilution, group Gn-Ia; type: cell-based; details: Gn-Ia (5), Mueller-Hinton agar, read-out: Geometric mean of MIC, Gn-Ia
Description: as §2
Gn-Ia Cephalothin(CET)-sensitive E. coli (2), Kl.
pneumoniae (1) and Pr. mirabilis (2).

S. aureus Smith [9] = test: MIC against S. aureus Smith; type: cell-based; details: Staphylococcus aureus
Description: as §2, §1

[10] = tested on: M. morganii (1), Ent. cloacae (2) and Ser. marcescens (2); test: MIC by two-fold serial agar dilution, group Gn-II; type: cell-based; details: Gn-II (5), Mueller-Hinton agar, read-out: Geometric mean of MIC, Gn-II
Description: as §2
Gn-II M. morganii (1), Ent. cloacae (2) and Ser.

P. aeruginosa A9843A [11] = test: In vivo antibacterial activity in infected mice, P. aeruginosa A9843A; details: Pseudomonas aeruginosa, im, read-out: PD50, P. aeruginosa A9843A
Description: as §1

Ps. aeruginosa (7) = test: MIC by two-fold serial agar dilution, group Gn-III; type: cell-based; details: Pseudomonas aeruginosa, Gn-III (7), Mueller-Hinton agar, read-out: Geometric mean of MIC, Gn-III
Description: as §2
Gn-III Ps. aeruginosa (7).

Compound	ED50 (S. aureus Smith [1])	MIC [2]	MIC (P. aeruginosa A9843A [3])	MIC [4]	MIC (E. coli Juhl [5])	ED50 (E. coli Juhl [6])	MIC [7]	MIC [8]	MIC (S. aureus Smith [9])	MIC [10]	ED50 (P. aeruginosa A9843A [11])	MIC (Ps. aeruginosa (7))
C[N+]1(CC2=C(C(=O)[O-])N3C(=O)C(NC(=O)C(=NOC(C(=O)O)c4ccc(O)c(O)c4)c4csc(N)n4)C3SC2)CCCC1 (stereo not drawn) [Ia, 7-[(2-(2-Aminothiazol-4-yl)-2[(Z)-[carboxy(3,4-dihydroxyphenyl)methyl]oxyimino]acetamido]-3-(1-methylpyrrolidinio)methyl-3-cephem-4-carboxylate]	5.6 mg/kg	1.4 µg/mL (≈ 2.21 µM)	1.6 µg/mL (≈ 2.53 µM)	3.1 µg/mL (≈ 4.9 µM)	0.2 µg/mL (≈ 0.316 µM)	0.14 mg/kg	0.4 µg/mL (≈ 0.632 µM)	0.3 µg/mL (≈ 0.474 µM)	1.6 µg/mL (≈ 2.53 µM)	0.8 µg/mL (≈ 1.26 µM)	6.3 mg/kg	1.6 µg/mL (≈ 2.53 µM)
C/C=C\C1=C(C(=O)O)N2C(=O)C(NC(=O)/C(=N\OC(C(=O)O)c3ccc(O)c(O)c3)c3csc(N)n3)C2SC1 (stereo not drawn) [Ib]	6.8 mg/kg	0.92 µg/mL (≈ 1.6 µM)	3.1 µg/mL (≈ 5.39 µM)	2.1 µg/mL (≈ 3.65 µM)	0.4 µg/mL (≈ 0.695 µM)	1.5 mg/kg	0.35 µg/mL (≈ 0.608 µM)	0.17 µg/mL (≈ 0.295 µM)	0.8 µg/mL (≈ 1.39 µM)	7.3 µg/mL (≈ 12.7 µM)	17 mg/kg	5.1 µg/mL (≈ 8.86 µM)
Nc1nc(/C(=N/OC(C(=O)O)c2ccc(O)c(O)c2)C(=O)NC2C(=O)N3C(C(=O)[O-])=C(/C=C/C[n+]4ccccc4)CSC23)cs1 (stereo not drawn) [Ic]	1.4 mg/kg	0.26 µg/mL (≈ 0.398 µM)	3.1 µg/mL (≈ 4.75 µM)	0.4 µg/mL (≈ 0.613 µM)	0.05 µg/mL (≈ 0.0766 µM)	0.067 mg/kg	0.15 µg/mL (≈ 0.23 µM)	0.076 µg/mL (≈ 0.116 µM)	0.4 µg/mL (≈ 0.613 µM)	0.46 µg/mL (≈ 0.705 µM)	12 mg/kg	2.3 µg/mL (≈ 3.52 µM)
Nc1nc(/C(=N/OCc2cc(O)c(O)cc2C(=O)O)C(=O)NC2C(=O)N3C(C(=O)[O-])=C(/C=C/C[n+]4ccccc4)CSC23)cs1 (stereo not drawn) [Id]	1 mg/kg	0.61 µg/mL (≈ 0.935 µM)	0.8 µg/mL (≈ 1.23 µM)	1.6 µg/mL (≈ 2.45 µM)	0.1 µg/mL (≈ 0.153 µM)	0.017 mg/kg	0.17 µg/mL (≈ 0.26 µM)	0.087 µg/mL (≈ 0.133 µM)	0.8 µg/mL (≈ 1.23 µM)	0.46 µg/mL (≈ 0.705 µM)	7.2 mg/kg	0.88 µg/mL (≈ 1.35 µM)
C[N+]1(CC2=C(C(=O)[O-])N3C(=O)C(NC(=O)/C(=N\OC(C(=O)O)c4ccc(O)c(O)c4)c4csc(N)n4)[C@H]3SC2)Cc2cc(O)c(O)cc2C1 (stereo partly drawn) [Ie, 7-[2-(2-Aminothiazol-4-yl)-2-[(Z)-[carboxy(3,4-dihydroxy-phenyl)methyl]oxyimino]acetamido]-3-(5,6-dihydroxy-2-methyl-2-isoindolinio)methyl-3-cephem-4-carboxylate]	2.4 mg/kg	8.3 µg/mL (≈ 11.6 µM)	0.4 µg/mL (≈ 0.561 µM)	13 µg/mL (≈ 18.2 µM)	0.8 µg/mL (≈ 1.12 µM)	0.045 mg/kg	0.46 µg/mL (≈ 0.645 µM)	0.46 µg/mL (≈ 0.645 µM)	12.5 µg/mL (≈ 17.5 µM)	1.6 µg/mL (≈ 2.24 µM)	2.1 mg/kg	0.3 µg/mL (≈ 0.421 µM)
